We go through 3 compounds from patent publication US8039621B2, “Process for preparing anhydrous Aripirazole type I” (Cambrex Charles City, Inc., priority 2006, dated 2011).

The nature of the data set: Hygroscopicity of dried anhydrous aripiprazole Type I crystals. It is filed as physicochemical. Conditions: vacuum of 22 inches Hg. On the procedure:
[…] A dish of phosphorous pentoxide (dessicant) also was placed in the oven. Periodically, approximately a one (1) gram sample of the aripiprazole wet cake was removed from the oven and analyzed for moisture content by the volumetric Karl Fischer titration method and also for its hygroscopicity. At the end of the 40 hour period, the moisture content of the final sample was analyzed using the coulometric Karl Fischer titration method and the hygroscopicity of the sample also was determined.
Another portion of the aripiprazole wet cake (20 g), prepared in accordance with the above-described procedure, was placed in a drying oven, the oven maintained at a temperature between 70 to 80° C., and under a vacuum of 22 inches Hg for a period of 40 hours. A dish of phosphorous pentoxide (dessicant) also was placed in the oven to facilitate drying. Periodically, approximately a one (1) gram sample of the aripiprazole wet cake was removed from the oven and analyzed for moisture content by the volumetric Karl Fischer titration method and also for its hygroscopicity. At the end of the 40 hours, the moisture content of the final sample was analyzed using the coulometric Karl Fischer titration method and the hygroscopicity of the sample also was determined.

[1] abbreviates: final sample after 40 Hours in 60 to 65° C. Oven.
Where [2] appears, read: final sample after 40 Hours in 70 to 80° C. Oven.

On to `O=C1CCc2ccc(OCCCCN3CCN(c4cccc(Cl)c4Cl)CC3)cc2N1` [Batch 2, 7-[4-[4-(2,3-dichlorophenyl)-1-piperazinyl]butoxy]-3,4-dihydro-2-(1H)-quinolinone], for which the “Hygroscopicity (%)” value reads like this: under setting [1], 1.2%; under setting [2], 0.7%.
For `O=C1CCc2ccc(OCCCCN3CCN(c4cccc(Cl)c4Cl)CC3)cc2N1` [Batch 3, 7-[4-[4-(2,3-dichlorophenyl)-1-piperazinyl]butoxy]-3,4-dihydro-2-(1H)-quinolinone], the “Hygroscopicity (%)” value under setting [1] was 1.8% and the “Hygroscopicity (%)” value under setting [2] is 0.4%.
In the case of `O=C1CCc2ccc(OCCCCN3CCN(c4cccc(Cl)c4Cl)CC3)cc2N1` [Batch 1, 7-[4-[4-(2,3-dichlorophenyl)-1-piperazinyl]butoxy]-3,4-dihydro-2-(1H)-quinolinone], the “Hygroscopicity (%)” value by setting is: under setting [1], 3.2%; under setting [2], 0.8%.
